According to US8022099B2, “N-benzyl pyrrolidine derivatives” (Hoffmann-La Roche Inc., priority 2008, dated 2011):

Target: T1, human NK3 receptor (Homo sapiens, UniProt P29371)
T1 construct: expressed in transfected cells; host or cells: HEK293 cells (transient expression), membrane preparation
T1 sequence (P29371 1-465): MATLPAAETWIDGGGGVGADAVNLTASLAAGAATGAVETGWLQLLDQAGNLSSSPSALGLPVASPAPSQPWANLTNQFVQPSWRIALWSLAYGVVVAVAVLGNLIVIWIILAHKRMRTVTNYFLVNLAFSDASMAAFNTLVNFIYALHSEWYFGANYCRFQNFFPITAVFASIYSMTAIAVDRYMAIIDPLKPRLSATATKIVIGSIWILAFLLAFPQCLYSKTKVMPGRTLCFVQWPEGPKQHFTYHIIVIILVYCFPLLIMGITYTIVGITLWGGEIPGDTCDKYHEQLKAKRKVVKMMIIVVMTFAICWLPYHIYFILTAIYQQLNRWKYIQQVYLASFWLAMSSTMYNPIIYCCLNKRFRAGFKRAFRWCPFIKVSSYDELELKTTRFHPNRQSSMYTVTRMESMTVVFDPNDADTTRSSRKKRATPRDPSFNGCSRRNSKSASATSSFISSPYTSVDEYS
Experiment: [3H]SR142801 competition binding assay
Details: hNK3 receptor binding, [3H]SR142801, membranes from HEK293 cells transiently expressing recombinant human NK3 receptor
Description: [^3H]SR142801 Competition Binding Assay
hNK3 receptor binding experiment were performed using [^3H]SR142801 (Catalog No. TRK1035, specific activity: 74.0 Ci/mmol, Amersham, GE Healthcare UK limited, Buckinghamshire, UK) and membrane isolated from HEK293 cells transiently expressing recombinant human NK3 receptor. After thawing, the membrane homogenates were centrifuged at 48,000×g for 10 min at 4° C., the pellets were resuspended in the 50 mM Tris-HCl, 4 mM MnCl2, 1 μM phosphoramidon, 0.1% BSA binding buffer at pH 7.4 to a final assay concentration of 5 μg protein/well. For inhibition experiments, membranes were incubated with [^3H]SR142801 at a concentration equal to KD value of radioligand and 10 concentrations of the inhibitory compound (0.0003-10 μM) (in a total reaction volume of 500 μl) for 75 min at room temperature (RT). At the end of the incubation, membranes were filtered onto unitfilter (96-well white microplate with bonded GF/C filter preincubated 1 h in 0.3% PEI+0.3% BSA, Packard BioScience, Meriden, Conn.) with a Filtermate 196 harvester (Packard BioScience) and washed 4 times with ice-cold 50 mM Tris-HCl, pH 7.4 buffer. Nonspecific binding was measured in the presence of 10 μM SB222200 for both radioligands. The radioactivity on the filter was counted (5 min) on a Packard Top-count microplate scintillation counter with quenching correction after addition of 45 μl of microscint 40 (Canberra Packard S. A., Zürich, Switzerland) and shaking for 1 h. Inhibition curves were fitted according to the Hill equation: y=100/(1+(x/IC50)^nH), where nH=slope factor using Excel-fit 4 software (Microsoft). IC50 values were derived from the inhibition curve and the affinity constant (Ki) values were calculated using the Cheng-Prussoff equation Ki=IC50/(1+[L]/KD) where [L] is the concentration of radioligand and KD is its dissociation constant at the receptor, derived from the saturation isotherm. All experiments were performed in duplicate and the mean±standard error (SEM) of the individual Ki values was calculated.

Ki	SMILES
74.8 nM	CN(C)[C@@H]1CCN(C(=O)N2C[C@H](c3ccc(Cl)c(Cl)c3)[C@@H](N(C)Cc3ccc(C(F)(F)F)c(F)c3)C2)C1 (mixture of isomers) [Example 57, {(3SR,4RS)-3-(3,4-Dichloro-phenyl)-4-[(3-fluoro-4-trifluoromethyl-benzyl)-methyl-amino]-pyrrolidin-1-yl}-((R)-3-dimethylamino-pyrrolidin-1-yl)-methanone]
15.4 nM	C[C@H]1CN(C(=O)N2C[C@H](c3ccc(Cl)c(Cl)c3)[C@@H](N(C)Cc3ccc(C(F)(F)F)c(F)c3)C2)CCN1S(C)(=O)=O (mixture of isomers) [Example 59, {(3SR,4RS)-3-(3,4-Dichloro-phenyl)-4-[(3-fluoro-4-trifluoromethyl-benzyl)-methyl-amino]-pyrrolidin-1-yl}-((S)-4-methanesulfonyl-3-methyl-piperazin-1-yl)-methanone]
3.6 nM	C[C@@H]1CN(C(=O)N2C[C@H](c3ccc(Cl)c(Cl)c3)[C@@H](N(C)Cc3ccc(C(F)(F)F)c(F)c3)C2)CCN1S(C)(=O)=O (mixture of isomers) [Example 60, {(3SR,4RS)-3-(3,4-Dichloro-phenyl)-4-[(3-fluoro-4-trifluoromethyl-benzyl)-methyl-amino]-pyrrolidin-1-yl}-((R)-4-methanesulfonyl-3-methyl-piperazin-1-yl)-methanone]
23.2 nM	CC(=O)N[C@H]1CCN(CC(=O)N2C[C@H](c3ccc(Cl)c(Cl)c3)[C@@H](N(C)Cc3ccc(C(F)(F)F)c(F)c3)C2)C1 (mixture of isomers) [Example 133, N-[(S)-1-(2-{(3SR,4RS)-3-(3,4-Dichloro-phenyl)-4-[(3-fluoro-4-trifluoromethyl-benzyl)-methyl-amino]-pyrrolidin-1-yl}-2-oxo-ethyl)-pyrrolidin-3-yl]-acetamide]
43.2 nM	CC(=O)N[C@@H]1CCN(CC(=O)N2C[C@H](c3ccc(Cl)c(Cl)c3)[C@@H](N(C)Cc3ccc(C(F)(F)F)c(F)c3)C2)C1 (mixture of isomers) [Example 134, N-[(R)-1-(2-{(3SR,4RS)-3-(3,4-Dichloro-phenyl)-4-[(3-fluoro-4-trifluoromethyl-benzyl)-methyl-amino]-pyrrolidin-1-yl}-2-oxo-ethyl)-pyrrolidin-3-yl]-acetamide]
47.9 nM	C[C@H]1CN(CC(=O)N2C[C@H](c3ccc(Cl)c(Cl)c3)[C@@H](N(C)Cc3ccc(C(F)(F)F)c(F)c3)C2)CCN1 (mixture of isomers) [Example 140, 1-{(3SR,4RS)-3-(3,4-Dichloro-phenyl)-4-[(3-fluoro-4-trifluoromethyl-benzyl)-methyl-amino]-pyrrolidin-1-yl}-2-((S)-3-methyl-piperazin-1-yl)-ethanone]
59.7 nM	C[C@@H]1CN(CC(=O)N2C[C@H](c3ccc(Cl)c(Cl)c3)[C@@H](N(C)Cc3ccc(C(F)(F)F)c(F)c3)C2)CCN1 (mixture of isomers) [Example 141, 1-{(3SR,4RS)-3-(3,4-Dichloro-phenyl)-4-[(3-fluoro-4-trifluoromethyl-benzyl)-methyl-amino]-pyrrolidin-1-yl}-2-((R)-3-methyl-piperazin-1-yl)-ethanone]
25.1 nM	CN(Cc1ccc(C(F)(F)F)c(F)c1)[C@H]1CN(C(=O)CN2C[C@@H]3C[C@@H]2CO3)C[C@@H]1c1ccc(Cl)c(Cl)c1 (mixture of isomers) [Example 148, 1-{(3SR,4RS)-3-(3,4-Dichloro-phenyl)-4-[(3-fluoro-4-trifluoromethyl-benzyl)-methyl-amino]-pyrrolidin-1-yl}-2-(1S,4R)-2-oxa-5-aza-bicyclo[2.2.1]hept-5-yl-ethanone]
90.9 nM	CN(Cc1ccc(C(F)(F)F)c(F)c1)[C@H]1CN(C(=O)N2CCN(S(C)(=O)=O)CC2)C[C@@H]1c1ccccc1 (racemic) [Example 17, {(3RS,4SR)-3-[(3-Fluoro-4-trifluoromethyl-benzyl)-methyl-amino]-4-phenyl-pyrrolidin-1-yl}-(4-methanesulfonyl-piperazin-1-yl)-methanone]
80.7 nM	CN(Cc1ccc(Cl)c(Cl)c1)[C@H]1CN(C(=O)N2CCN(S(C)(=O)=O)CC2)C[C@@H]1c1ccc(Cl)cc1 (racemic) [Example 19, {(3SR,4RS)-3-(4-Chloro-phenyl)-4-[(3,4-dichloro-benzyl)-methyl-amino]-pyrrolidin-1-yl}-(4-methanesulfonyl-piperazin-1-yl)-methanone]
91 nM	CN(Cc1ccc(Cl)cc1)[C@H]1CN(C(=O)N2CCN(S(C)(=O)=O)CC2)C[C@@H]1c1ccc(Cl)cc1 (racemic) [Example 23, [(3RS,4SR)-3-[(4-Chloro-benzyl)-methyl-amino]-4-(4-chloro-phenyl)-pyrrolidin-1-yl]-(4-methanesulfonyl-piperazin-1-yl)-methanone]
82.5 nM	CN(Cc1ccc(C#N)cc1)[C@H]1CN(C(=O)N2CCN(S(C)(=O)=O)CC2)C[C@@H]1c1ccc(Cl)cc1 (racemic) [Example 26, 4-({[(3RS,4SR)-4-(4-Chloro-phenyl)-1-(4-methanesulfonyl-piperazine-1-carbonyl)-pyrrolidin-3-yl]-methyl-amino}-methyl)-benzonitrile]
78 nM	CN(Cc1ccc(-c2ccccc2)cc1)[C@H]1CN(C(=O)N2CCN(S(C)(=O)=O)CC2)C[C@@H]1c1ccc(Cl)cc1 (racemic) [Example 27, [(3RS,4SR)-3-(Biphenyl-4-ylmethyl-methyl-amino)-4-(4-chloro-phenyl)-pyrrolidin-1-yl]-(4-methanesulfonyl-piperazin-1-yl)-methanone]
69.9 nM	CN(Cc1ccc(Cl)c(F)c1)[C@H]1CN(C(=O)N2CCN(S(C)(=O)=O)CC2)C[C@@H]1c1ccc(Cl)cc1 (racemic) [Example 29, [(3RS,4SR)-3-[(4-Chloro-3-fluoro-benzyl)-methyl-amino]-4-(4-chloro-phenyl)-pyrrolidin-1-yl]-(4-methanesulfonyl-piperazin-1-yl)-methanone]
28.4 nM	CN(Cc1ccc(C(F)(F)F)c(F)c1)[C@H]1CN(C(=O)N2CCN(S(C)(=O)=O)CC2)C[C@@H]1c1ccc(Cl)cc1 (racemic) [Example 30, {(3SR,4RS)-3-(4-Chloro-phenyl)-4-[(3-fluoro-4-trifluoromethyl-benzyl)-methyl-amino]-pyrrolidin-1-yl}-(4-methanesulfonyl-piperazin-1-yl)-methanone]
8.3 nM	CN(Cc1ccc(C(F)(F)F)c(F)c1)[C@H]1CN(C(=O)N2CCN(S(C)(=O)=O)CC2)C[C@@H]1c1ccc(Cl)c(Cl)c1 (racemic) [Example 31, {(3SR,4RS)-3-(3,4-Dichloro-phenyl)-4-[(3-fluoro-4-trifluoromethyl-benzyl)-methyl-amino]-pyrrolidin-1-yl}-(4-methanesulfonyl-piperazin-1-yl)-methanone]
33.3 nM	CN(Cc1ccc(Cl)c(Cl)c1)[C@H]1CN(C(=O)N2CCN(S(C)(=O)=O)CC2)C[C@@H]1c1ccc(Cl)c(Cl)c1 (racemic) [Example 32]
33.6 nM	CN(Cc1ccc(Cl)cc1)[C@H]1CN(C(=O)N2CCN(S(C)(=O)=O)CC2)C[C@@H]1c1ccc(Cl)c(Cl)c1 (racemic) [Example 33, [(3RS,4SR)-3-[(4-Chloro-benzyl)-methyl-amino]-4-(3,4-dichloro-phenyl)-pyrrolidin-1-yl]-(4-methanesulfonyl-piperazin-1-yl)-methanone]
